From patent publication US10988444B2, “Antimicrobial compounds” (NEWSOUTH INNOVATIONS PTY LIMITED, priority 2016, dated 2021) come the findings set out here.

Values after ≈ are worked out from the molar mass of the structure shown. Values joined by “and” are separate entries in the source; they are usually repeats but may differ in a detail not shown here. Equal values may be shown once. Read-outs that look alike come from different tables or passages of the source.

As a reminder, the IC50 is the midpoint of a concentration-inhibition curve. By inhibition is commonly meant the drop in the measured response relative to a control, in per cent.

Data set [1] has as its system MRC-5 normal human lung fibroblasts. Nature of the data set: Cytotoxicity assay, Alamar blue, Example 2. It is filed as cell-based. Conditions: for IC50: Homo sapiens, MRC5, MRC-5, concentration which killed half of the cells. As to the method: The in vitro toxicity of the compounds (24a, 38b, 42d, 43d) was determined against MRC-5 normal human lung fibroblasts using the Alamar blue assay (see O'Brien, J.; Wilson, I.; Orton, T.; Pognan, F. Eur. J. Biochem. 2000, 267 (17), 5421-5426). A dose-response curve for each compound was generated to determine the IC50 values (concentration of compound which killed half of the cells) and the IC50 values were then used to determine the therapeutic window (IC50 value divided by MIC value) and specificity of the compounds (Table 3).
(The colour change of resazurin is a common sign of viable cells or microbes.)

A short description of data set [2]: Membrane conduction, tBLMs containing 30% POPG, Example 2. Conditions: negatively charged lipid, 50 μM, preliminary study. From the text: Tethered bilayer lipid membranes (tBLMs) associated with alternating current electrical impedance spectroscopy techniques were employed to determine whether the compounds (24a, 38b, 42d, 43d) are lytic to cell membranes. Sparsely tethered tBLMs containing 30% palmitoyl-oleoyl-phosphati-dylglycerol (POPG) were created using the solvent-exchange technique described by Cranfield et al. in 2015 (see Cranfield, C. G.; Bettler, T.; Cornell, B. Langmuir 2015, 31 (1), 292-298). The tBLM conduction responses of compounds (24a, 38b, 42d, 43d) were compared to that of LL-37, a cathelicidin AMP that is known to permeabilise membranes.

In the next data set the test system is S. aureus (SA38). The data set is described as follows: Minimal inhibitory concentration (MIC) assay, Example 2. Conditions: Staphylococcus aureus, TSB, 37° C., 24 h. The data set is classed as cell-based. As to the method:
A single colony of bacteria was cultured overnight in TSB at 37° C. The resulting bacterial culture was collected by centrifugation and re-suspended in TSB twice. The optical density (OD) of the resulting culture was adjusted to OD600=0.1 in TSB (equivalent to 10^8 colony forming unit (CFU)/mL bacteria), and was further diluted to 10^5 CFU/mL in TSB. 100 μL of the bacterial solution was then added to wells of a 96-well plate containing 100 μL serially diluted compound, with final concentration ranging from 8-250 μM. The plates were then incubated at 37° C. for 24 h and the data was recorded by measuring the OD value at 600 nm using a Wallac Victor (Perkin-Elmer) microplate reader. […] Each experiment was performed in triplicate and was repeated in two independent experiments. The results of the MIC assay are given below in Table 2.

The test system of data set [3] is E. coli. Nature of the data set: Minimal inhibitory concentration (MIC) determination, Example 1. Conditions: 24 h, MHB, 37° C.; for MIC: Escherichia coli, read-out: Minimum inhibitory concentration (MIC) E. coli. It is filed as cell-based. Here is the method: (§1) The antibacterial activity of the compounds was determined by the determination of minimal inhibitory concentration (MIC) by following the previously published protocol (see Nizalapur, S.; Ho, K. K.; Kimyon, Ö.; Yee, E.; Berry, T.; Manefield, M.; Cranfield, C. G.; Willcox, M.; Black, D. S.; Kumar, N. Org. Biomol. Chem. 2016, 14, 3623). The compounds to be tested were dissolved and diluted in autoclaved Millipore water. A single colony of bacteria was cultured overnight in TSB at 37° C. The resulting bacteria were collected by centrifugation and re-suspended in the same volume of MHB twice. Optical density (OD) of the resulting culture was adjusted to 0.1 at 600 nm (10^8 CFU/mL) in MHB, and the adjusted culture was further diluted to […] in MHB. Then, 100 μL of the bacterial solution was added to wells of a 96-well plate containing 100 μL of serially diluted compound. Two controls were also prepared: one containing 100 μL of MHB media and 100 μL sterile water, and the other containing 100 μL of bacterial solution and 100 μL sterile water. […] The MIC value was determined as the lowest concentration of compound that inhibited the complete growth of the bacteria (i.e. OD similar to that of the control having no bacteria). Each experiment was performed in triplicate and was repeated in three independent experiments.
(§2) The results of the MIC assay are given below in Table 1.

The subject of data set [4] is S. aureus. The data set is described as above. The data set is classed as cell-based. Conditions: Staphylococcus aureus. Here is the method: as §1, §2
Data set [5] concerns E. coli. The data set is described as follows: Biofilm disruption assay, established biofilms, crystal violet staining. It is filed as cell-based. Conditions: 250 μM, 24 h treatment. As to the method: (§3) Bacterial cultures were grown in TSB media for overnight at 37° C. with shaking at 150 r.p.m. Cultures were diluted (1:20) in YPD medium and 200 μl aliquots were dispensed to flat bottom 96-well plate wells (Sarstedt Australia). Cultures were supplemented with varying concentrations of synthetic compounds dissolved in water. For pre-established biofilm assay, cultures were grown in 96-well plate wells overnight prior to supplementation with synthetic compounds. Control cultures were supplemented with an equal amount of DMSO. Plates were sealed with self-adhesive microplate sealers (TopSeal-A, PerkinElmer) to allow air diffusion and to prevent condensation. Cultures were incubated overnight at 37° C. with shaking at 150 r.p.m. Biofilms adhered on polystyrene substratum were quantified by crystal violet staining as described previously (see Wiegand, I.; Hilpert, K.; Hancock, R. E. W. Nat. Protocols 2008, 3 (2), 163-175). All cultures were prepared in triplicates. Error bars represent the standard error of three independent experiments (n=3).
(§4) The biofilm disruption activities of the compounds were investigated using crystal violet staining according to a previously published protocol (G. A. O'Toole, J Vis Exp, 2011, (47), pii: 2437, DOI: 10.3791/2437, 2437). The ability of compounds (34-38, 51-56, 61, 62, 65 and 66) to disrupt the established biofilms of the Gram-positive bacteria S. aureus and the Gram-negative bacteria Pseudomonas aeruginosa, Serratia marcescens and E. coli, was determined at a concentration of 250 μM. In this assay, bacterial cultures were grown on a polystyrene substratum overnight prior to treatment with the compounds. In addition, the ability of these compounds to inhibit the formation of biofilms of P. aeruginosa and S. marcescens was also investigated at 250 μM, whereby the bacterial cultures were grown in the presence of test compounds.

Data set [6] deals with S. marcescens. Described as above. It is filed as cell-based, Serratia marcescens. Conditions: 250 μM, 24 h treatment. As to the method:
as §3, §4

For data set [7], the system named is MRC-5 normal human lung fibroblasts. Nature of the data set: Toxicity assay, Alamar blue, Example 1. The data set is classed as cell-based. Conditions: for IC50: Homo sapiens, MRC5, 72 h incubation, read-out: toxicity (IC50) against MRC-5 human fibroblast cells. As to the method:
The normal human lung fibroblasts MRC-5 were cultured in minimal essential medium (MEM, Invitrogen) supplemented with 10% foetal calf serum (FCS), 1% L-glutamine-penicillin-streptomycin, 2% sodium bicarbonate, 1% non-essential amino acids (NEAA) and 1% sodium pyruvate. The cell line was maintained at 37° C. in 5% CO2 as an adherent monolayer and was passaged upon reaching confluence by standard cell culture techniques. MRC-5 cells were seeded at 2×10^4 cells per well in 96-well plates to ensure full confluence (quiescence). Cells were treated 24 h after seeding with 0.1 to 1000 μM of compounds. After 72 h drug incubation, the treated media was replaced with fresh media containing 10% Alamar blue and the cells were incubated for another 6 h. The metabolic activity was detected by spectrophotometric analysis by assessing the absorbance of Alamar blue as previously described by Pasquier et. al (see Pasquier, E.; Ciccolini, J.; Carre, M.; Giacometti, S.; Fanciullino, R.; Pouchy, C.; Montero, M.-P.; Serdjebi, C.; Kavallaris, M.; André, N. Oncotarget 2011, 2, 797).
Cell proliferation was determined and expressed as a percentage of untreated control cells. The determination of IC50 values was performed using GraphPad Prism 6 (San Diego, Calif., USA).
To further evaluate the utility of these novel guanylated peptidomimetics for medical applications, it was essential to determine their specificity towards bacterial cells over mammalian cells.

Data set [8] has as its system S. marcescens. Nature of the data set: Biofilm inhibition assay (inhibition of biofilm formation), crystal violet staining. It is filed as cell-based. Conditions: Serratia marcescens, 24 h. Here is the method: as §3, with “no-established” for “pre-established”, “along” for “prior to supplementation”, “water.” for “DMSO.”
as §4

Data set [9] deals with Pseudomonas aeruginosa (PAO1). Nature of the data set: Biofilm disruption assay, established biofilms, crystal violet staining. Conditions: 250 μM, 24 h treatment. It is filed as cell-based. Here is the method: as §3, §4
Data set [10] deals with S. aureus. The description is as above. Conditions: 250 μM, 24 h treatment. It is filed as cell-based. Here is the method:
as §3, §4

[11] abbreviates: MHB, 37° C., 24 h, read-out: Minimum inhibitory concentration (MIC) S. aureus.
[12] abbreviates: MIC in μM as compared with MRC-5 IC50, read-out: equivalent MIC values.

For `CCCCCCCCS(=O)(=O)Nc1ccc(Br)cc1C(=O)C(=O)NCCCN(C)C` [Compound 24a, 2-(5-Bromo-2-(octylsulfonamido)phenyl)-N-(3-(dimethylamino)propyl)-2-oxoacetamide], in [1], the IC50 stood at 37.4 µM. Also, the “toxicity to human cells” value in data set [1] (MRC-5) is reported as “high level of toxicity to human cells”. Besides, the tBLM conduction response result in [2] is reported as “showed conduction responses”. Moreover, the MIC in the data set with S. aureus (SA38) was 47 µM (≈ 23.7 µg/mL).

For the compound `Cl.N=C(N)NCCCNC(=O)C(=O)c1cc(Br)ccc1NC(=O)c1ccc2ccccc2c1` [Compound 35, N-(4-Bromo-2-(2-((3-guanidinopropyl)amino)-2-oxoacetyl)phenyl)-2-naphthamide hydrochloride], the MIC was greater than 110 µg/mL in the data set with E. coli [3], 6 µg/mL with S. aureus [4] (setting [11]) and 12.5 µM in the data set on S. aureus [4] (setting [12]). Moreover, the “disruption of established biofilms of E. coli” value with E. coli [5] is reported as 46%. In addition, the “disruption of established biofilms of S. marcescens” value with S. marcescens [6] was 49%. Further, in [7], the half-inhibitory concentration (IC50) turned out to be 174 µM.

`Cl.N=C(N)NCCCNC(=O)C(=O)c1cc(Cl)ccc1NC(=O)c1ccc2ccccc2c1` [Compound 36, N-(4-Chloro-2-(2-((3-guanidinopropyl)amino)-2-oxoacetyl)phenyl)-2-naphthamide hydrochloride]: the values for the MIC in the data set with E. coli [3], in the data set on S. aureus [4] (setting [11]) and in the data set with S. aureus [4] (setting [12]) were greater than 110 µg/mL, 8 µg/mL and 16 µM, respectively. Further, in the data set on E. coli [5], the “disruption of established biofilms of E. coli” value is on record as 43%. Moreover, the IC50 in data set [7] worked out at 224 µM. In the data set on S. marcescens [8], this compound registered an inhibition at 250 µM of 71%.

In the case of `CCCCCCCCS(=O)(=O)Nc1ccc(Br)cc1C(=O)C(=O)NCCN(C)C.Cl` [Compound 38b, 2-(2-(5-Bromo-2-(octylsulfonamido)phenyl)-2-oxoacetamido)-N,N-dimethylethan-1-aminium chloride], in [1], the IC50 came to 75.5 µM. Further, in [2], the tBLM conduction response entry is reported as “showed conduction responses”. Further, the MIC against S. aureus (SA38) came out at 63 µM.

`CCCCCCCCS(=O)(=O)Nc1ccccc1C(=O)C(=O)NCCCNC(=N)N.Cl` [Compound 42d, N-(3-Guanidinopropyl)-2-(2-(octylsulfonamido)phenyl)-2-oxoacetamide hydrochloride] displayed an IC50 in data set [1] of 373 µM. Further, the tBLM conduction response result in [2] is listed as “showed conduction responses”. The compound further came in with an MIC against S. aureus (SA38) of 47 µM.

`Cl.N=C(N)NCCCC[C@H](NC(=O)C(=O)c1cc(F)ccc1NC(=O)c1ccc2ccccc2c1)C(=O)O` [Compound 53, N^2-(2-(2-(2-naphthamido)-5-fluorophenyl)-2-oxoacetyl)-N^6-carbamimidoyllysine hydrochloride]: the MIC stood at 67 µg/mL in the data set on E. coli [3] and 108 µg/mL with S. aureus [4] (setting [11]). Also, in the data set with E. coli [3] (hydrochloride), the “Minimum inhibitory concentration (MIC) E. coli” value was determined as 68 µg/mL. Further, the “disruption of established biofilms of P. aeruginosa” value (shortened to “disruption … of P. aeruginosa”) in [9] worked out at 42%. Moreover, the “disruption of established biofilms of S. aureus” value in the data set with S. aureus [10] is recorded as 46%. Further, the “disruption of established biofilms of S. marcescens” value with S. marcescens [6] is 40%. The same compound returned an inhibition at 250 µM in the data set with S. marcescens [8] of 67%.

`COC(=O)C(CCCN)NC(=O)C(CCCCN)NC(=O)C(=O)c1ccccc1NC(=O)c1ccc2ccccc2c1.Cl.Cl` (stereo not drawn) [Compound 61, Methyl2-(2-(2-(2-(2-naphthamido)phenyl)-2-oxoacetamido)-6-aminohexanamido)-5-aminopentanoate dihydrochloride]: the MIC was 39 µg/mL with E. coli [3] and 130 µg/mL with S. aureus [4] (setting [11]). Also, in data set [9], the “disruption … of P. aeruginosa” value was 55%. Moreover, the “disruption of established biofilms of S. aureus” value in the data set on S. aureus [10] was determined as 53%.

In the case of `COC(=O)[C@H](CCCNC(=N)N)NC(=O)[C@H](CCCNC(=N)N)NC(=O)C(=O)c1cc(Br)ccc1NC(=O)c1ccc2ccccc2c1.Cl.Cl` [Compound 66, Methyl (2-(2-(2-naphthamido)-5-bromophenyl)-2-oxoacetyl)arginylargininate dihydrochloride], the MIC with E. coli [3] amounted to 50 µg/mL; in the data set with S. aureus [4] (setting [11]), 10 µg/mL; with S. aureus [4] (setting [12]), 15.7 µM. Besides, the “disruption … of P. aeruginosa” value in data set [9] (dihydrochloride) is 54% and 55%. In addition, the “toxicity (IC50) against MRC-5 human fibroblast cells” value in [7] (72 h incubation) was “not reaching a 50% reduction of cell viability at the highest tested dose”. This compound had an inhibition at 250 µM in the data set on S. marcescens [8] of 69%.
